Reference: patent US11672792B2, “Topical formulations comprising montelukast and combinations with mussel adhesive proteins” (ENLITISA (SHANGHAI) PHARMACEUTICAL CO., LTD, priority 2017, dated 2023)

Key:
[1] = test system: carrageenan-induced acute inflammation in subcutaneous air pouch; assay: Air Pouch Model II (Example 2); assay type: in vivo, mice; parameters: Fibroplastic proliferation score / Inflammation score / Activity score / Edema Score / Sum (of histology scores): scale not given here; conditions: Dopamine 2 mg, MAP 250 μg, Mon 100 μg
Procedure: In Table 6, “Dex” is an abbreviation for dexamethasone and “Dopamine” is a 4 mg/mL aqueous solution of dopamine hydrochloride (Shanghai Aladdin Bio-Chem Technology Co., Ltd., Shanghai, China).
The histological specimens were analysed and an inflammation score, an activity score and a fibroplastic proliferation score were estimated as in Example 1 above and are tabulated in Table 9 below.

[2] = test system: carrageenan-induced acute inflammation in subcutaneous air pouch; assay: Air Pouch Model I (Example 1); assay type: in vivo, C57BL/6 mice; parameters: Activity score / Edema Score / Sum (of histology scores) / Fibroplastic proliferation score / Inflammation score: scale not given here; conditions: MAP 1.5 mg, Mon 200 μg
Procedure: Healthy adult male C57BL/6 mice weighing between 20 and 30 g were supplied by Changzhou Cvens Experimental Animal Co. Ltd (Changzhou, Jiangsu Province, China). Prior to any experiments being conducted, mice were housed under standardized conditions (at a constant temperature or 22 t 2° C., with alternating 12 hour periods of light and darkness), and were fed on a standard mouse diet with water, for about a week.
General anesthesia was induced using intraperitoneal 3% chloral hydrate (Sinopharm Chemical Reagent Co., Ltd., Shanghai, China); 1 mL/10 g of body weight). The hair of the entire dorsum was shaved and depilated 1 day before sterile air injection.
Air pouches were produced by subcutaneous injection of sterile air (5 mL) into the intrascapular area of the mice. After three days, another injection of air (3 mL) was performed to maintain the pouches. In order to induce acute inflammation, three days after this final injection, animals received an injection of sterile carrageenan solution (CP Kelco, Taixing, Jiangsu Province, China; 1%, 0.5 mL; produced by adding 0.1 g of carrageenan powder into a beaker containing 10 mL of 0.9% saline solution and stirring). Mice were pre-treated with test samples or vehicle 1 hour before and 23 hours after the carrageenan injection into the subcutaneous air pouch. Animals were sacrificed 24 hours after the carrageenan injection.
Skin biopsies were taken from the air pouches. A part of the biopsy was fixed in formalin (produced by adding ultra pure water to 50 mL of a 40% formaldehyde solution (Nanchang Rain Dew Experimental Equipment Co., Ltd., Nanchang, […] Provence, China) up to a total volume of 500 mL) and analyzed by histological embedding in paraffin wax, sectioning and staining.
The cavity was washed with 4 mL of sterile phosphate buffer solution (pH 7.4; prepared by dissolving 4 g of NaCl, 0.1 g of KCl, 1.749 g of Na2HPO4.12H2O and 0.1 g of KH2PO4 in ultrapure water, adjusting the pH to 7.4 with HCl and diluting with water to a total volume of 500 mL).
Exudates were collected and volumes were quantified. The total number of cells was determined with a haematocytometer (ADVIA 2120 Hematology System, Siemens Healthineers).
In Table 1, MAP is a Mefp-1 solution, which is was prepared as follows. Blue mussels were harvested in the coastal area of Shandong Province, China. Mussel feet were collected, cut into small pieces and homogenized in an extraction buffer comprising 5% acetic acid in 4 mol/L of aqueous urea. The crude extracts were collected after centrifuging and then purified by liquid chromatography. […] The solutions that were employed below were prepared by adding saline solution to this semi-finished product to obtain a concentration as described in Table 1.

[3] = test system: carrageenan-induced acute inflammation in subcutaneous air pouch; assay: Air Pouch Model: Combination of Montelukast (Example 5); assay type: in vivo, mice; conditions: MAP 1.5 mg, Mon 200 μg
[4] = test system: carrageenan-induced acute inflammation in subcutaneous air pouch; assay: Air Pouch Model: Topical Administration Versus Oral Administration (Example 4); conditions: 200 μg/mouse, Mon-O intragastric
[5] = doses/mouse: dexamethasone 200 μg
[6] = doses/mouse: dexamethasone 200 μg, 24 h after carrageenan
[7] = pouch wall histology, dexamethasone 200 μg

SMILES: C[C@@H]1C[C@H]2[C@@H]3CCC4=CC(=O)C=C[C@]4(C)[C@@]3(F)[C@@H](O)C[C@]2(C)[C@@]1(O)C(=O)CO [Dexamethasone, dexamethasone]
- Activity score ([1]; Dex 400 μg): 0.33
- Edema Score ([1]; Dex 400 μg): 0.83
- Fibroplastic proliferation score ([1]; Dex 400 μg): 0.00
- IFN-γ in exudate (ELISA) ([1]; Dex 400 μg): 238.91 ± 272.27
- IL-6 in exudate (ELISA) ([1]; Dex 400 μg): 3697.30 ± 5112.52
- Inflammation score ([1]; Dex 400 μg): 0.83
- Leukocyte count in exudate ([1]; Dex 400 μg): 880000 mL⁻¹
- Lymphocyte count in exudate ([1]; Dex 400 μg): 30000 mL⁻¹
- Monocyte count in exudate ([1]; Dex 400 μg): 670000 mL⁻¹
- Neutrophil count in exudate ([1]; Dex 400 μg): 130000 mL⁻¹
- Sum (of histology scores) ([1]; Dex 400 μg): 2.00
- Exudate volume ([1]; doses/mouse: Dex 400 μg): 2.87 ± 0.06 mL
- Pouch Wall Weight ([1]; doses/mouse: Dex 400 μg): 0.45 ± 0.01 g
- IFN-γ in exudate (ELISA) ([2]; dexamethasone 200 μg): 2879 ± 1267
- IL-6 in exudate (ELISA) ([2]; dexamethasone 200 μg): 3649 ± 1764
- IL-10 in exudate (ELISA) ([2]; dexamethasone 200 μg): 52.33 ± 11.60
- TNF-α in exudate (ELISA) ([2]; dexamethasone 200 μg): 71.31 ± 111.19
- Leukocyte count in exudate [2, 5]: 2.48e+08 mL⁻¹
- Lymphocyte count in exudate [2, 5]: 2.08e+08 mL⁻¹
- Monocyte count in exudate [2, 5]: 5e+06 mL⁻¹
- Neutrophil count in exudate [2, 5]: 2.2e+07 mL⁻¹
- Exudate volume [2, 6]: 3.60 ± 0.14 mL
- Pouch Wall Weight [2, 6]: 0.72 ± 0.09 g
- Activity score [2, 7]: 0.83
- Edema Score [2, 7]: 1.67
- Fibroplastic proliferation score [2, 7]: 0.00
- Inflammation score [2, 7]: 1.50
- Sum (of histology scores) [2, 7]: 4.00
- Activity score ([3]; dexamethasone 200 μg): 0.83
- Edema Score ([3]; dexamethasone 200 μg): 1.67
- Fibroblast proliferation score ([3]; dexamethasone 200 μg): 0.00
- IFN-γ in exudate (ELISA) ([3]; dexamethasone 200 μg): 2879 ± 1267
- IL-6 in exudate (ELISA) ([3]; dexamethasone 200 μg): 3649 ± 1764
- IL-10 in exudate (ELISA) ([3]; dexamethasone 200 μg): 52.33 ± 11.60
- Inflammation score ([3]; dexamethasone 200 μg): 1.50
- Leukocyte count in exudate ([3]; dexamethasone 200 μg): 2.48e+06 mL⁻¹
- Lymphocyte count in exudate ([3]; dexamethasone 200 μg): 2.08e+06 mL⁻¹
- Monocyte count in exudate ([3]; dexamethasone 200 μg): 50000 mL⁻¹
- Neutrophil count in exudate ([3]; dexamethasone 200 μg): 220000 mL⁻¹
- Sum (of histology scores) ([3]; dexamethasone 200 μg): 4.00
- TNF-α in exudate (ELISA) ([3]; dexamethasone 200 μg): 71.31 ± 111.19
- Exudate volume [3, 5]: 3.60 ± 0.14 mL
- Pouch Wall Weight [3, 5]: 0.72 ± 0.09 g
- Exudate volume ([4]; others injected into pouch): 3.3 ± 0.15 mL
- Pouch Wall Weight ([4]; others injected into pouch): 0.63 ± 0.09 g
- Activity score ([4]; others into pouch): 0.67
- Edema Score ([4]; others into pouch): 1.67
- IFN-γ in exudate (ELISA) ([4]; others into pouch): 388.83 ± 130.02
- IL-6 in exudate (ELISA) ([4]; others into pouch): 428.05 ± 267.27
- Inflammation score ([4]; others into pouch): 1.83
- Leukocyte count in exudate ([4]; others into pouch): 3.49e+06 mL⁻¹
- Sum (of histology scores) ([4]; others into pouch): 4.17
- TNF-α in exudate (ELISA) ([4]; others into pouch): 65.08 ± 7.70
